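Compound exposure: 48 hours, 5 concentrations, 96-well plates. At the GI50, growth is halved. The concentration for full growth arrest is given as TGI.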
How the values were obtained:
Test in all cases: NCI-60 cell line screen, 48 h
786-0 renal = system: 786-0 renal
A498 renal = system: A498 renal
A549 NSCLC = system: A549 NSCLC
ACHN renal = system: ACHN renal
CAKI-1 renal = system: CAKI-1 renal
CCRF-CEM leukemia = system: CCRF-CEM leukemia
EKVX NSCLC = system: EKVX NSCLC
HCC-2998 colon = system: HCC-2998 colon
HCT-15 colon = system: HCT-15 colon
HL-60(TB) leukemia = system: HL-60(TB) leukemia
HOP-62 NSCLC = system: HOP-62 NSCLC
HOP-92 NSCLC = system: HOP-92 NSCLC
HS 578T breast = system: HS 578T breast
HT29 colon = system: HT29 colon
IGROV1 ovarian = system: IGROV1 ovarian
K-562 leukemia = system: K-562 leukemia
M14 melanoma = system: M14 melanoma
MALME-3M melanoma = system: MALME-3M melanoma
MCF7 breast = system: MCF7 breast
MDA-MB-231 breast = system: MDA-MB-231 breast
MDA-MB-435 = system: MDA-MB-435
MOLT-4 leukemia = system: MOLT-4 leukemia
NCI-H226 lung = system: NCI-H226 lung
NCI-H23 lung = system: NCI-H23 lung
NCI-H460 lung = system: NCI-H460 lung
NCI-H522 lung = system: NCI-H522 lung
NCI/ADR-RES ovarian = system: NCI/ADR-RES ovarian
OVCAR-4 ovarian = system: OVCAR-4 ovarian
OVCAR-5 ovarian = system: OVCAR-5 ovarian
OVCAR-8 ovarian = system: OVCAR-8 ovarian
PC-3 prostate = system: PC-3 prostate
RXF 393 renal = system: RXF 393 renal
SF-268 CNS = system: SF-268 CNS
SF-295 CNS = system: SF-295 CNS
SK-MEL-2 melanoma = system: SK-MEL-2 melanoma
SK-MEL-28 melanoma = system: SK-MEL-28 melanoma
SK-MEL-5 melanoma = system: SK-MEL-5 melanoma
SK-OV-3 ovarian = system: SK-OV-3 ovarian
SN12C renal = system: SN12C renal
SNB-19 CNS = system: SNB-19 CNS
SR leukemia = system: SR leukemia
T-47D breast = system: T-47D breast
TK-10 renal = system: TK-10 renal
U251 CNS = system: U251 CNS
UACC-257 melanoma = system: UACC-257 melanoma
UACC-62 melanoma = system: UACC-62 melanoma
UO-31 renal = system: UO-31 renal
COLO 205 colon = system: COLO 205 colon
DU-145 prostate = system: DU-145 prostate
KM12 colon = system: KM12 colon
LOX IMVI melanoma = system: LOX IMVI melanoma
RPMI-8226 leukemia = system: RPMI-8226 leukemia
SNB-75 CNS = system: SNB-75 CNS
SW-620 colon = system: SW-620 colon

CC1(C)CC[C@]2(C(=O)Nc3ccccn3)CC[C@]3(C)C(=CC[C@@H]4[C@@]5(C)C/C(=C/c6ccncc6)C(=O)C(C)(C)[C@@H]5CC[C@]43C)[C@@H]2C1 gave a GI50 (786-0 renal) of 2880 nM, a TGI (786-0 renal) of over 100 µM and a GI50 (A498 renal) of 2050 nM. The TGI (A498 renal) was 5.18 µM, the GI50 (A549 NSCLC) was 2000 nM and the TGI (A549 NSCLC) was over 100 µM. For the same compound, the GI50 (ACHN renal) was 2080 nM, the TGI (ACHN renal) was 5.98 µM and the GI50 (CAKI-1 renal) was 2690 nM. It also gave a TGI (CAKI-1 renal) of over 100 µM, a GI50 (CCRF-CEM leukemia) of 2300 nM and a TGI (CCRF-CEM leukemia) of over 100 µM. It also gave a GI50 (EKVX NSCLC) of 3.8 µM, a TGI (EKVX NSCLC) of over 100 µM and a GI50 (HCC-2998 colon) of 1810 nM. For the same compound, the TGI (HCC-2998 colon) was 4.82 µM, the GI50 (HCT-15 colon) was 1850 nM and the TGI (HCT-15 colon) was 6.63 µM. For the same compound, the GI50 (HL-60(TB) leukemia) was 1240 nM, the TGI (HL-60(TB) leukemia) was 5.68 µM and the GI50 (HOP-62 NSCLC) was 4.41 µM. The TGI (HOP-62 NSCLC) was over 100 µM, the GI50 (HOP-92 NSCLC) was 1240 nM and the TGI (HOP-92 NSCLC) was 7 µM. The GI50 (HS 578T breast) was 2960 nM, the TGI (HS 578T breast) was over 100 µM and the GI50 (HT29 colon) was 2170 nM. The TGI (HT29 colon) was over 100 µM, the GI50 (IGROV1 ovarian) was 3.12 µM and the TGI (IGROV1 ovarian) was 67.3 µM. For the same compound, the GI50 (K-562 leukemia) was 1780 nM, the TGI (K-562 leukemia) was over 100 µM and the GI50 (M14 melanoma) was 2850 nM. It also gave a TGI (M14 melanoma) of over 100 µM, a GI50 (MALME-3M melanoma) of 2250 nM and a TGI (MALME-3M melanoma) of 6.15 µM. It also gave a GI50 (MCF7 breast) of 938 nM, a TGI (MCF7 breast) of 15.3 µM and a GI50 (MDA-MB-231 breast) of 2920 nM. The TGI (MDA-MB-231 breast) was 19.5 µM, the GI50 (MDA-MB-435) was 2580 nM and the TGI (MDA-MB-435) was over 100 µM. The GI50 (MOLT-4 leukemia) was 2270 nM, the TGI (MOLT-4 leukemia) was over 100 µM and the GI50 (NCI-H226 lung) was 1970 nM. For the same compound, the TGI (NCI-H226 lung) was 6.04 µM, the GI50 (NCI-H23 lung) was 3.18 µM and the TGI (NCI-H23 lung) was over 100 µM. It also gave a GI50 (NCI-H460 lung) of 1510 nM, a TGI (NCI-H460 lung) of 3.9 µM and a GI50 (NCI-H522 lung) of 2090 nM. The TGI (NCI-H522 lung) was 27.7 µM, the GI50 (NCI/ADR-RES ovarian) was 4.48 µM and the TGI (NCI/ADR-RES ovarian) was over 100 µM. It also gave a GI50 (OVCAR-4 ovarian) of 2900 nM, a TGI (OVCAR-4 ovarian) of over 100 µM and a GI50 (OVCAR-5 ovarian) of 4.14 µM. For the same compound, the TGI (OVCAR-5 ovarian) was over 100 µM, the GI50 (OVCAR-8 ovarian) was 3.76 µM and the TGI (OVCAR-8 ovarian) was over 100 µM. The GI50 (PC-3 prostate) was 624 nM, the TGI (PC-3 prostate) was over 100 µM and the GI50 (RXF 393 renal) was 1670 nM. It also gave a TGI (RXF 393 renal) of 3.37 µM, a GI50 (SF-268 CNS) of 9.45 µM and a TGI (SF-268 CNS) of over 100 µM. It also gave a GI50 (SF-295 CNS) of 2370 nM, a TGI (SF-295 CNS) of 29.3 µM and a GI50 (SK-MEL-2 melanoma) of 3.63 µM. The TGI (SK-MEL-2 melanoma) was over 100 µM, the GI50 (SK-MEL-28 melanoma) was 2280 nM and the TGI (SK-MEL-28 melanoma) was 6.59 µM. It also gave a GI50 (SK-MEL-5 melanoma) of 1590 nM, a TGI (SK-MEL-5 melanoma) of 3.1 µM and a GI50 (SK-OV-3 ovarian) of over 100 µM. For the same compound, the TGI (SK-OV-3 ovarian) was over 100 µM, the GI50 (SN12C renal) was 2570 nM and the TGI (SN12C renal) was over 100 µM. For the same compound, the GI50 (SNB-19 CNS) was 5.82 µM, the TGI (SNB-19 CNS) was over 100 µM and the GI50 (SR leukemia) was 702 nM. For the same compound, the TGI (SR leukemia) was over 100 µM, the GI50 (T-47D breast) was 1680 nM and the TGI (T-47D breast) was over 100 µM. The GI50 (TK-10 renal) was 5.75 µM, the TGI (TK-10 renal) was over 100 µM and the GI50 (U251 CNS) was 1820 nM. The TGI (U251 CNS) was 4.32 µM, the GI50 (UACC-257 melanoma) was 2200 nM and the TGI (UACC-257 melanoma) was over 100 µM. It also gave a GI50 (UACC-62 melanoma) of 1850 nM, a TGI (UACC-62 melanoma) of 8.89 µM and a GI50 (UO-31 renal) of 1380 nM. It also gave a TGI (UO-31 renal) of 2740 nM.

In the case of CCC(=O)OC1=C(c2ccccc2)Sc2ccc(Cl)cc2-n2cccc21, the TGI (786-0 renal) is reported as over 10 µM, the TGI (A549 NSCLC) is reported as over 10 µM and the TGI (CAKI-1 renal) is reported as over 10 µM. The TGI (CCRF-CEM leukemia) was over 10 µM, the TGI (COLO 205 colon) was over 10 µM and the TGI (DU-145 prostate) was over 10 µM. The TGI (EKVX NSCLC) was over 10 µM, the TGI (HCC-2998 colon) was over 10 µM and the TGI (HCT-15 colon) was over 10 µM. For the same compound, the TGI (HL-60(TB) leukemia) was over 10 µM, the TGI (HOP-62 NSCLC) was over 10 µM and the TGI (HOP-92 NSCLC) was over 10 µM. It also gave a TGI (HT29 colon) of over 10 µM, a TGI (IGROV1 ovarian) of over 10 µM and a TGI (K-562 leukemia) of over 10 µM. It also gave a TGI (KM12 colon) of over 10 µM, a TGI (LOX IMVI melanoma) of over 10 µM and a TGI (M14 melanoma) of over 10 µM. It also gave a TGI (MALME-3M melanoma) of over 10 µM, a TGI (MCF7 breast) of over 10 µM and a TGI (MDA-MB-231 breast) of over 10 µM. For the same compound, the TGI (MDA-MB-435) was 5.28 µM, the TGI (MOLT-4 leukemia) was over 10 µM and the TGI (NCI-H23 lung) was over 10 µM. For the same compound, the TGI (OVCAR-4 ovarian) was over 10 µM, the TGI (OVCAR-8 ovarian) was over 10 µM and the TGI (PC-3 prostate) was over 10 µM. The TGI (RPMI-8226 leukemia) was over 10 µM, the TGI (RXF 393 renal) was over 10 µM and the TGI (SF-268 CNS) was over 10 µM. The TGI (SF-295 CNS) was over 10 µM, the TGI (SK-MEL-28 melanoma) was over 10 µM and the TGI (SK-MEL-5 melanoma) was over 10 µM. For the same compound, the TGI (SK-OV-3 ovarian) was over 10 µM, the TGI (SN12C renal) was over 10 µM and the TGI (SNB-75 CNS) was over 10 µM. The TGI (SR leukemia) was over 10 µM, the TGI (SW-620 colon) was over 10 µM and the TGI (T-47D breast) was over 10 µM. The TGI (TK-10 renal) was over 10 µM, the TGI (UACC-257 melanoma) was over 10 µM and the TGI (UACC-62 melanoma) was over 10 µM.

— PubChem BioAssay (NCI)
